Among the targets are Cytochrome P450 3A4 (Homo sapiens, UniProt P08684); Cytochrome P450 2D6 (Homo sapiens, UniProt P10635); Cytochrome P450 2C9 (Homo sapiens, UniProt P11712).
Experiment [1] concerns the target DNA dC->dU-editing enzyme APOBEC-3G (Homo sapiens, UniProt Q9HC16). The experiment is classed as functional.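 Also: Dose-response counterscreen measuring inhibition of APOBEC3G DNA deaminase activity, run while confirming APOBEC3A inhibitors.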
Another experiment deals with T1, Protein skinhead-1 (Caenorhabditis elegans, UniProt P34707).
T1 sequence (P34707 whole entry): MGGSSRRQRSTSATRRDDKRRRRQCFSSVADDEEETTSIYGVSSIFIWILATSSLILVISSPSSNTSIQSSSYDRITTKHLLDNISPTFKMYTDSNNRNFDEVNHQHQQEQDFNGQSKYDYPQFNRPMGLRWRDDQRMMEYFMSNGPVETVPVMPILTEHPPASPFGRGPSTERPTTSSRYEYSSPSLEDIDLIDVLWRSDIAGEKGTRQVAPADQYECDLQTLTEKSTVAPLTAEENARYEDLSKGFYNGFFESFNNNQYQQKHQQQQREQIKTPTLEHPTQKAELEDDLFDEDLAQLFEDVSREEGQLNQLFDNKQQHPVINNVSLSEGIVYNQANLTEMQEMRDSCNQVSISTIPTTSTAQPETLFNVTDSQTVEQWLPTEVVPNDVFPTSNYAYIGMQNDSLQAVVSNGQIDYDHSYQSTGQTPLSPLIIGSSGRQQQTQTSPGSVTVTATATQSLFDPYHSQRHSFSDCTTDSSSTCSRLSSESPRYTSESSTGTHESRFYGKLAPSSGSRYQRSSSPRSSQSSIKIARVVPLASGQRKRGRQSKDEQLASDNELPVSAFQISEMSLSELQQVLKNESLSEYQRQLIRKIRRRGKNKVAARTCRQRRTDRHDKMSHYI
The experiment is classed as functional.

Experiment [2] concerns the target DNA dC->dU-editing enzyme APOBEC-3A (Homo sapiens, UniProt P31941). Briefly: Dose Response confirmation of small molecule APOBEC3A DNA Deaminase Inhibitors via a fluorescence-based single-stranded DNA deaminase assay. [Related pubchem assays (depositor defined):AID493011, AID493024]. The experiment is classed as functional.
For a further experiment, the target named is Prothrombin (Homo sapiens, UniProt P00734). Briefly: Thrombin 1536 HTS Dose Response Confirmation. [Related pubchem assays: 1046 (Thrombin 1536 HTS; hits were confirmed in this assay)]. The experiment is classed as functional.
Experiment [3] concerns the target T2, Short transient receptor potential channel 4 (Mus musculus, UniProt Q9QUQ5).
T2 sequence (Q9QUQ5 whole entry): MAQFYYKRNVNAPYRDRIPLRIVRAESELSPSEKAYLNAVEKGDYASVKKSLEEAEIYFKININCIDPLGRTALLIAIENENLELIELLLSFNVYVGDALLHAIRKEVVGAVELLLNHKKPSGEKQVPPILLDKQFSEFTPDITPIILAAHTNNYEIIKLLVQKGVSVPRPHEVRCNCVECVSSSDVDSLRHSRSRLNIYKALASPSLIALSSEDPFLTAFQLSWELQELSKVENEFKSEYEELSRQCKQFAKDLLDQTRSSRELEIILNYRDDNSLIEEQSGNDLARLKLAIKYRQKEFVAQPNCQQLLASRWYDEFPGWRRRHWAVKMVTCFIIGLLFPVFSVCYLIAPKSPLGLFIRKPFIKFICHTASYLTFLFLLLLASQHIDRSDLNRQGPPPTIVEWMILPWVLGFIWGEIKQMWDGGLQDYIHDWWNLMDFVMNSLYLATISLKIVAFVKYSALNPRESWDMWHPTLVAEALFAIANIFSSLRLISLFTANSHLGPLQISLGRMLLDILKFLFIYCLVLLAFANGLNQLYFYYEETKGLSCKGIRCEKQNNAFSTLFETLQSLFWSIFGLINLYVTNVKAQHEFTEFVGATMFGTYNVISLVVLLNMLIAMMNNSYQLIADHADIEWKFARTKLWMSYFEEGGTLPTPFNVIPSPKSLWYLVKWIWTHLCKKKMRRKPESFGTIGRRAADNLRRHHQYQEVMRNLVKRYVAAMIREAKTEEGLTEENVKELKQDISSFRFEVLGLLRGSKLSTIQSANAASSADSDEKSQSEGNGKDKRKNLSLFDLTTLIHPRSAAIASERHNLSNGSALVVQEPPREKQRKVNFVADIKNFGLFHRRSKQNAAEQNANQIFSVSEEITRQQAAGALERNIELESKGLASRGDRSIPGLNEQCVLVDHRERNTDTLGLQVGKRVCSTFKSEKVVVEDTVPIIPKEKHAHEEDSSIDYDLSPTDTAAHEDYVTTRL
Kind of experiment: mouse TRPC4 channel inhibitors, dose response, cell-based, HEK293 TRPC4/mu-opioid, Fluo-4 calcium (AID 434942).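 Also: potency of inhibitors blocking the TRPC4 calcium response.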 The experiment is classed as functional.

The target in another experiment is Cytochrome P450 2C19 (Homo sapiens, UniProt P33261). Briefly: Cytochrome panel assay with activity outcomes. Panel member name: p450-cyp2c19 Compounds with AC50 equal or less than 10 uM are considered active. The experiment is classed as functional. Conditions: read-out: AC50.
Experiment [4] deals with T3, High affinity choline transporter 1 (Homo sapiens, UniProt Q9GZV3).
T3 sequence (Q9GZV3 whole entry): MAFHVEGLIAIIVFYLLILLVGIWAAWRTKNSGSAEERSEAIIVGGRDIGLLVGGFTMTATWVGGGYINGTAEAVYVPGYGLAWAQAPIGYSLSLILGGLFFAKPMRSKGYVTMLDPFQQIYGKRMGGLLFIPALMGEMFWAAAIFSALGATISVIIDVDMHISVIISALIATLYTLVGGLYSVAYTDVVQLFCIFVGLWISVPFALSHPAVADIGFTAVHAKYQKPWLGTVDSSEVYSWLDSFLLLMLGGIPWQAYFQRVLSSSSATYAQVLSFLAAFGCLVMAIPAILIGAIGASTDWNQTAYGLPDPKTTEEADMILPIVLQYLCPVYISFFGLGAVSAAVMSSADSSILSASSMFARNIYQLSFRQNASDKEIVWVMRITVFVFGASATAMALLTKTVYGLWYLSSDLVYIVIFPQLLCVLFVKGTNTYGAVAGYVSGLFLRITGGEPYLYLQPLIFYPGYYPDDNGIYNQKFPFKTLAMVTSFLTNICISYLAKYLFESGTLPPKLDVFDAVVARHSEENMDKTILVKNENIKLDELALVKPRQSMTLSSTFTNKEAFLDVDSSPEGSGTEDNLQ
Briefly: CHT inhibitors, dose response, cell-based, 5-point CRC, membrane potential dye (AID 504840). The experiment is classed as functional.

The next experiment deals with T4, Cytochrome P450 1A2 (Homo sapiens, UniProt P05177).
T4 sequence (P05177 whole entry): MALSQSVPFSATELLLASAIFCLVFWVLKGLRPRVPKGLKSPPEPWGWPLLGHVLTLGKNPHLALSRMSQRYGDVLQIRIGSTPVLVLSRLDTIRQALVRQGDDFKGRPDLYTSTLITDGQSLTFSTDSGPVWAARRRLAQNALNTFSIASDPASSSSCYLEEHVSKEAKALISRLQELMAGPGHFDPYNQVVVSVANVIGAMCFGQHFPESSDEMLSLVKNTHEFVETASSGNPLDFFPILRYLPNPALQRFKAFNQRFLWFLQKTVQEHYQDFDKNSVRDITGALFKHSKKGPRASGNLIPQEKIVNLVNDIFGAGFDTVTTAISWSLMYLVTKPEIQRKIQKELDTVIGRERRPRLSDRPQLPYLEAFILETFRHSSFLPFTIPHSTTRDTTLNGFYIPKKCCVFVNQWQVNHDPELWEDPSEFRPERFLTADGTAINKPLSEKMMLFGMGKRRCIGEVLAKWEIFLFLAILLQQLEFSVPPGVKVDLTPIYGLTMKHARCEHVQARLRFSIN

The target in experiment [5] is Peroxisome proliferator-activated receptor gamma/Nuclear receptor coactivator 2 (Homo sapiens, UniProt P37231). Briefly: TR-FRET dose response biochemical High Throughput Screening assay for agonists of the steroid receptor coactivator 2 (SRC-2) recruitment by the peroxisome proliferator-activated receptor gamma (PPAR gamma): non-selective agonists. [Related pubchem assays: 1297, 1032 ]. The experiment is classed as functional.

Experiment [6] has as its target Peroxisome proliferator-activated receptor gamma/Nuclear receptor coactivator 3 (Homo sapiens, UniProt P37231). Kind of experiment: TR-FRET dose response biochemical High Throughput Screening assay for agonists of the steroid receptor coactivator 3 (SRC-3) recruitment by the peroxisome proliferator-activated receptor gamma (PPAR gamma): non-selective agonists. [Related pubchem assays: 1301 (Confirmation screen.), 1048 (Primary screen.)]. The experiment is classed as functional.

For experiment [7], the target named is Peroxisome proliferator-activated receptor gamma/Nuclear receptor coactivator 1 (Homo sapiens, UniProt P37231). Kind of experiment: TR-FRET dose response biochemical High Throughput Screening assay for agonists of the steroid receptor coactivator 1 (SRC-1) recruitment by the peroxisome proliferator-activated receptor gamma (PPAR gamma): non-selective agonists. [Related pubchem assays (depositor defined):AID1300, AID1808, AID504735, AID631]. The experiment is classed as protein assay.

A further experiment is described as follows: cells. The experiment is classed as functional.

The results in this text go back to ChEMBL document CHEMBL1201862, “PubChem BioAssay data set” (2004).

Activity calls are given as the source filed them. Where only a bound is given, the exact number is not on record here.

Chain of DNA dC->dU-editing enzyme APOBEC-3A (P31941 whole entry): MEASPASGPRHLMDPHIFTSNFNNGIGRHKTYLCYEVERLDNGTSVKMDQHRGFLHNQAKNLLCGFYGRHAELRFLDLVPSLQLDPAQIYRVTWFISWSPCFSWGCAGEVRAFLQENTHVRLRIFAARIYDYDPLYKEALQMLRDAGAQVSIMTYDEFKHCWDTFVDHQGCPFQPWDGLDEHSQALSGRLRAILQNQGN
Chain of DNA dC->dU-editing enzyme APOBEC-3G (Q9HC16 whole entry): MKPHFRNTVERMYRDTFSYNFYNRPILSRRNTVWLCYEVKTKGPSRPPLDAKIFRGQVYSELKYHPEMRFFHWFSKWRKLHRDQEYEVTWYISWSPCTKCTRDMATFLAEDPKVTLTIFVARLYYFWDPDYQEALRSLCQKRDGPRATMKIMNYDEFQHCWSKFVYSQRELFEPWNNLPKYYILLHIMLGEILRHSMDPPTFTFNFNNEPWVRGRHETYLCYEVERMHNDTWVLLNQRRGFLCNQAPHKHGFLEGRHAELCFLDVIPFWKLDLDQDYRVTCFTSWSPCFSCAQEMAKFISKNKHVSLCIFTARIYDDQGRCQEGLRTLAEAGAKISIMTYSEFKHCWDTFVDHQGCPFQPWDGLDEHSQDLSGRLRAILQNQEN
Chain of Peroxisome proliferator-activated receptor gamma/Nuclear receptor coactivator 1 (P37231 whole entry): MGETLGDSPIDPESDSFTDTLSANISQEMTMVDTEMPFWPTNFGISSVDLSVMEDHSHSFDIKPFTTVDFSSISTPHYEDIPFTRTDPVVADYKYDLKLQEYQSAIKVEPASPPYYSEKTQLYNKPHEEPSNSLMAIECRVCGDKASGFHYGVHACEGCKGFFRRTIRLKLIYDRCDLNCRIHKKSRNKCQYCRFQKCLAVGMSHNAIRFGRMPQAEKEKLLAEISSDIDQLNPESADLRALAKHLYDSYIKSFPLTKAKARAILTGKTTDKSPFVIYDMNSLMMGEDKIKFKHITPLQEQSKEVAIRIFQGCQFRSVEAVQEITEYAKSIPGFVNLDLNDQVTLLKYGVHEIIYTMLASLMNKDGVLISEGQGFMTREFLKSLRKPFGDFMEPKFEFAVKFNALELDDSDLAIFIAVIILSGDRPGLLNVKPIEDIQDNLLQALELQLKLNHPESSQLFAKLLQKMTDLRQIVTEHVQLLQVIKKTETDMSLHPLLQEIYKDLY
Chain of Peroxisome proliferator-activated receptor gamma/Nuclear receptor coactivator 1 (Q15788 whole entry, further chain): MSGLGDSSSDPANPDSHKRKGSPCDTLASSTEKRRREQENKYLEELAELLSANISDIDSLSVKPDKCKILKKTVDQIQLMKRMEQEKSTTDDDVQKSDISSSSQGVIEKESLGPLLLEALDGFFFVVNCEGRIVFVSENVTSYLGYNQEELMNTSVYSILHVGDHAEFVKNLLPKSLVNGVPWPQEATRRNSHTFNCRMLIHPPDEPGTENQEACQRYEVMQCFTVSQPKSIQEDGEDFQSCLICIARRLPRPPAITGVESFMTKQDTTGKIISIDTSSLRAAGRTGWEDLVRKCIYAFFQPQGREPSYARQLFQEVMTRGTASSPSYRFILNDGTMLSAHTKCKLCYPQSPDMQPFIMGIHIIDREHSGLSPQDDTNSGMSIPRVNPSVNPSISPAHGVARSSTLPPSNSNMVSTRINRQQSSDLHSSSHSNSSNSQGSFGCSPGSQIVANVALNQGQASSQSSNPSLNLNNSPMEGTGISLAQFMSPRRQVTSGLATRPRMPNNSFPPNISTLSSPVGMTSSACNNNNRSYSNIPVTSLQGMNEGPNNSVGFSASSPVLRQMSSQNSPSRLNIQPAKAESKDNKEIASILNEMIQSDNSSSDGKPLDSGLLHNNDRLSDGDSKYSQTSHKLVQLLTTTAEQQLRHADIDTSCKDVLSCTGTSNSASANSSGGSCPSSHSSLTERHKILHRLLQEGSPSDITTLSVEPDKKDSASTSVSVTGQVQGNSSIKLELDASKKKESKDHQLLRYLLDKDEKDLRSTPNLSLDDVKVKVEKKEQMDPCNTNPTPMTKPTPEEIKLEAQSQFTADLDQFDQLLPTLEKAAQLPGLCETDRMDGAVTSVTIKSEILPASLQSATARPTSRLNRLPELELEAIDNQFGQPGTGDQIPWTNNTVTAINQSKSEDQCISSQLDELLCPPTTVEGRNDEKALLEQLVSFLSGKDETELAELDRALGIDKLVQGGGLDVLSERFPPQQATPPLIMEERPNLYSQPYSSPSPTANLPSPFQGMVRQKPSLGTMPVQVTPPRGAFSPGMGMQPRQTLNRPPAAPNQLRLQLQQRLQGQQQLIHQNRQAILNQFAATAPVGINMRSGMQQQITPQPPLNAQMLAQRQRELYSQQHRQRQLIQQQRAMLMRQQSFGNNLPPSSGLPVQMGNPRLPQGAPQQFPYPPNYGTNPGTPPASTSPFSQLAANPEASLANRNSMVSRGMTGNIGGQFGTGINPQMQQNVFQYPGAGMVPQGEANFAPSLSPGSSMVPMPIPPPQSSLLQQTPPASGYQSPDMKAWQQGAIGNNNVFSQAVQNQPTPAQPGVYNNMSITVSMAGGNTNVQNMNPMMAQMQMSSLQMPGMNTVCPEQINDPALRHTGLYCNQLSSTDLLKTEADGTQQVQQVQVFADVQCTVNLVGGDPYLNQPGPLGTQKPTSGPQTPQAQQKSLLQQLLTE
Chain of Peroxisome proliferator-activated receptor gamma/Nuclear receptor coactivator 3 (P37231 whole entry): as the sequence (P37231 whole entry) above
Chain of Peroxisome proliferator-activated receptor gamma/Nuclear receptor coactivator 3 (Q9Y6Q9 whole entry, further chain): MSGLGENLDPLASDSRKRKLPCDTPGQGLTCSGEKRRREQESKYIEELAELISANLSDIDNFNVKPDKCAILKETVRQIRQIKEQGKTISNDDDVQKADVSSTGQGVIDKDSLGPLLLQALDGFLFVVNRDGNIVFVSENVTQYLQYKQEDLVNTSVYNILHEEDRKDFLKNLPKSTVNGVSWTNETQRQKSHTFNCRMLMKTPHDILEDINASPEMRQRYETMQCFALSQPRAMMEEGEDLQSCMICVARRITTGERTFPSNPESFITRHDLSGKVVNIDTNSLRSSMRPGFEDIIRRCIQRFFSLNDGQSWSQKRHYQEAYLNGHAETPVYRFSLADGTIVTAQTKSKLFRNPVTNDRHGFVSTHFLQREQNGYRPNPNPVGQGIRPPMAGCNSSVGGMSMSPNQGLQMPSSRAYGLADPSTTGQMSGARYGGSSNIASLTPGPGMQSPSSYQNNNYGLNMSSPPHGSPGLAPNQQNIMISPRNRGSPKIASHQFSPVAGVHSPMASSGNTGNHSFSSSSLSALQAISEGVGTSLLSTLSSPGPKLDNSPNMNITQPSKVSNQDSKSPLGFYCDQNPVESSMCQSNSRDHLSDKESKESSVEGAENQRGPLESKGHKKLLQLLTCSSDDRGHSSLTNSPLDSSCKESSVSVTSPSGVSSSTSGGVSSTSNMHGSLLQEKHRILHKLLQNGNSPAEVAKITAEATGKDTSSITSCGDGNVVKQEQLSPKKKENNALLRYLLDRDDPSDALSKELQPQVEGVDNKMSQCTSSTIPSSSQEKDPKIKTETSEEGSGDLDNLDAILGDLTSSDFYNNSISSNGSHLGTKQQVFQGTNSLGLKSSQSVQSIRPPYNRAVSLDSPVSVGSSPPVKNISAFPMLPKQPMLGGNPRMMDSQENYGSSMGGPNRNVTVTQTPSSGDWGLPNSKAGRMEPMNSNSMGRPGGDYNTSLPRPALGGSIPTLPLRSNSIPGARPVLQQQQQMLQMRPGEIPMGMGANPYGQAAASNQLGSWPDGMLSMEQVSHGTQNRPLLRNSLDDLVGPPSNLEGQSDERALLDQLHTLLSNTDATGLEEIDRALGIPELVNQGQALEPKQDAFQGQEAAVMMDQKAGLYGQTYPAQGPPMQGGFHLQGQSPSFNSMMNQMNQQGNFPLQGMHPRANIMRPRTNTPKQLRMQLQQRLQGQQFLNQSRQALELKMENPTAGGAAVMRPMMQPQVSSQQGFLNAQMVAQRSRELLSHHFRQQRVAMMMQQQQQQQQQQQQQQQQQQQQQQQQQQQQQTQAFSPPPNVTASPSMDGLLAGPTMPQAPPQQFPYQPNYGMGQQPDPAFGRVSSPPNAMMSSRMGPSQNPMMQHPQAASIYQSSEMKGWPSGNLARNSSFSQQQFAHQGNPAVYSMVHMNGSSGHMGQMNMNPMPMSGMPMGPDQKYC
Chain of Cytochrome P450 3A4 (P08684 whole entry): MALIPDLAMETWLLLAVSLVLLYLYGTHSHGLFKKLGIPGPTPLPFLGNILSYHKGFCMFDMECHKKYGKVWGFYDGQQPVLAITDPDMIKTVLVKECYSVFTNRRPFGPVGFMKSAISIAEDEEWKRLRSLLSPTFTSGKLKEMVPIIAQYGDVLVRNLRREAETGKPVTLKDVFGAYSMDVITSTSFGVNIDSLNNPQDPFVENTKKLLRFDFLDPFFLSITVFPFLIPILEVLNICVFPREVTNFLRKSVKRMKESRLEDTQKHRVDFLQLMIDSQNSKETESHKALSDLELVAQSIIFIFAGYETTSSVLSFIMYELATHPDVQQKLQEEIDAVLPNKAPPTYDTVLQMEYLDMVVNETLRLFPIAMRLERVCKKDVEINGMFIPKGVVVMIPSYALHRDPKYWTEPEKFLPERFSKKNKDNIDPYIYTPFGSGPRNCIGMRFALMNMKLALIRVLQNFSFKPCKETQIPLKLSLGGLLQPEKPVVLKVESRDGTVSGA

As for `O=[N+]([O-])c1ccc2nc(N3CCCC3)sc2c1`, the figures for the half-inhibitory concentration (IC50) (in [1]; on Protein skinhead-1; in experiment [2]) were 4.86 µM (active), 39.1 µM (active) and 5.31 µM (active), respectively.

Consider `C[N+]1(C)CCN(c2ccccc2)CC1` [DIMETHYLPHENYLPIPERAZINIUM IODIDE], for which the values for the IC50 in experiment [1] and in [2] were 2.62 µM (active) and 1.93 µM (active), respectively.

On to `N=c1n(CCO)c2ccccc2n1Cc1ccccc1`, for which, on Prothrombin, the 50% inhibitory concentration (IC50) is > 50 µM (not active). The EC50 in [3] was 5.31 µM (active).

For `CCCCn1nc2cc(C(=O)NC3CCCc4ccccc43)ccc2c1OCC` (stereo unspecified), the AC50 was 35.5 µM (inconclusive) at Cytochrome P450 3A4; 22.4 µM (inconclusive) on Cytochrome P450 2D6; 39.8 µM (inconclusive) on Cytochrome P450 2C19; 22.4 µM (inconclusive) on Cytochrome P450 2C9; 39.8 µM (inconclusive) at Cytochrome P450 1A2. Besides, in [4], the half-maximal inhibitory concentration (IC50) is 12.9 µM (active).

For `Cn1c(=O)cc(SCC(=O)N2CCC3(CC2)OCCO3)c2ccc(Cl)cc21`, the figures for the EC50 in [5], in experiment [6] and in [7] were > 79.4 µM (not active), > 79.4 µM (not active) and > 79.4 µM (inactive), respectively.

For the compound `CSCCNCc1cn(-c2ccc(F)cc2F)nc1-c1ccccc1C`, the EC50 in experiment [3] was 5.96 µM (active).

Consider `N#Cc1ccc(-c2ccc3c(c2)OCO3)nc1SCC(=O)OCc1ccccc1`, for which the EC50 was 7.23 µM (active) in [5], 20.4 µM (not active) in experiment [6] and 5.85 µM (active) in [7].

For `CN(C)c1cc[n+](CC(=O)Nc2ccc(OC(F)F)cc2)cc1`, the 50% inhibitory concentration (IC50) in [1] was 4.21 µM (active); in experiment [2] it was 2.44 µM (active).

As to `Sc1ncnc2sc(-c3ccccc3)cc12`, the EC50 in [5] was 34.7 µM (not active); in experiment [6], > 79.4 µM (not active); in experiment [7], 8.82 µM (active). Moreover, the IC50 in “cells” is 49.3 µM (active).
